Data published in patent US20180113115A1, “SCREENING ASSAYS BASED ON MAG AND/OR ABHD6 FOR SELECTING INSULIN SECRETION PROMOTING AGENT” (VAL-CHUM, LIMITED PARTNERSHIP, priority 2010, published 2018).

Tests used:
[1] = test system: isolated C57Bl6 mouse islets; test: GSIS in isolated C57Bl6 mouse islets; format: cell-based
From the text: (§1) All procedures were approved by the Institutional Committee for the Protection of Animals at the Centre Hospitalier de l'Université de Montreal Research Center. Wistar rats or […] mice or CD1 mice (all male) from Charles River (St-Constant, QC, Canada) were anaesthetized with Somnotol® (MTC Pharmaceuticals, Canada) and sacrificed by exsanguination. Pancreatic islets were isolated by collagenase (type XI from Sigma) digestion of total pancreas (Gotoh et al.), followed by separation (centrifugation at 1040×g) on a Histopaque™ 1119, 1077 (Sigma) gradient. Isolated islets were handpicked and cultured overnight in a petri dish at 37° C. in a humidified atmosphere containing 5% CO2 in RPMI 1640 with sodium bicarbonate, supplemented with 10% fetal calf serum, 10 mM HEPES pH 7.4, 2 mM L-glutamine, 1 mM sodium pyruvate, 100 U/mL penicillin and 100 μg/mL streptomycin.
(§2) For insulin secretion from rat, mouse or human islets, batches of 10 islets were washed in KRBH containing 2.8 mM glucose and 0.5% defatted BSA, and pre-incubated for 45 min in KRBH containing 2.8 mM glucose, 0.5% defatted BSA and different pharmacological agents (at indicated concentrations) or DMSO. Islets were then incubated for either 45 min or 2 h in KRBH containing various glucose concentrations or 2.8 mM glucose plus 35 mM KCl, 0.5% defatted BSA in the presence or absence of drugs (at indicated concentrations) or vehicle (DMSO). At the end of the incubation, media were collected and insulin extracted from cells or islets in acid-ethanol (1.5% HCl, 75% ethanol). Total insulin contents and media insulin concentrations were determined by radioimmunoassay using human insulin standards (Linco Research, Mo.).

INS 832/13 cells [2] = test: Insulin secretion measurement in INS 832/13 cells (static incubation); format: cell-based
Procedure: (§3) INS 832/13 cells (Hohmeir et al.) were cultured at 37° C. in a humidified atmosphere containing 5% CO2 in RPMI 1640 with sodium bicarbonate, supplemented with 10% (v/v) fetal calf serum (Wisent), 10 mM HEPES, pH 7.4, 2 mM L-glutamine, 1 mM sodium pyruvate and 50 μM β-mercaptoethanol (complete RPMI). Cells were grown to 80% confluence. Media were changed to RPMI 1640 containing 3 mM glucose supplemented as the complete RPMI 24 h prior to the experiments. Insulin secretion incubations were conducted in Krebs-Ringer bicarbonate buffer containing 10 mM HEPES, pH 7.4 (KRBH).
INS 832/13 cells were washed in KRBH containing 1 mM glucose and 0.5% defatted BSA (KRBH 1G/0.5% BSA) and pre-incubated for 45 min in KRBH 1G/0.5% BSA in presence of pharmacological agents (at indicated concentrations) or vehicle (DMSO). […] When examining the effect of 2-AG, it was added to cells at 0 to 1 μM concentration at 2 mM and 10 mM glucose. Insulin secretion from INS 832/13 cells was measured from either 45-min or 2-h static incubations in KRBH containing various glucose concentrations, 0.5% defatted BSA and pharmacological agents or vehicle, with or without 35 mM KCl or 0.3 mM palmitate, as specified.

[3] = test system: dispersed rat islet cells; test: GSIS in dispersed rat islet cells; format: cell-based; settings: 20 μM WWL70, 20 μM AMG9810 or combination
From the text: as §1, with “streptomycin. […]” for “streptomycin.”
(§4) For insulin secretion from rat, mouse or human islets, batches of 10 islets were washed in KRBH containing 2.8 mM glucose and 0.5% defatted BSA, and pre-incubated for 45 min in KRBH containing 2.8 mM glucose, 0.5% defatted BSA and different pharmacological agents (at indicated concentrations) or DMSO. […] Total insulin contents and media insulin concentrations were determined by radioimmunoassay using human insulin standards (Linco Research, Mo.).

rat intact islets = test: GSIS in isolated intact rat islets; format: cell-based; settings: 20 μM WWL70 + 20 μM AMG9810
From the text: as §1, §4

human intact islets = test: GSIS in human intact islets; format: cell-based; settings: one donor
Procedure: Human islets were obtained from the Human Islet Isolation Core of MDRC, following appropriate ethical guidelines. The donor was a […] without any known metabolic disease. Islets were hand-picked and cultured overnight before use. Both rodent and human islets were also treated with trypsin to disperse islet cells and then cultured overnight in RPMI complete medium. These overnight cultured dispersed islets cells were then used for examining the effect of various pharmacological agents.
as §2

[4] = test system: isolated CD1 mouse islets; test: GSIS in isolated CD1 mouse islets; format: cell-based
From the text: as §1, §2

INS 832/13 cells [5] = test: Effect of lipase inhibitors on [U-14C]-glucose incorporation into lipids; format: cell-based; settings: 1 and 10 mM [U14C]-glucose, 50 μM orlistat
Procedure: as §3
INS 832/13 cells were incubated overnight at 11 mM [U-^14C]-glucose in RPMI medium in a CO2-incubator in order to pre-label all the lipids in the cells. Then the cells were washed in KRBH (1 mM [U-^14C]-glucose) and pre-incubated for 45 min in KRBH at 1 mM [U-^14C]-glucose to bring metabolism to basal level. After this, cells were further incubated for 2 h in KRBH at 1 and 10 mM [U-^14C]-glucose and the indicated inhibitors. […] Then the cells were washed rapidly and flash-frozen in liquid nitrogen and extracted for lipids. Lipids were separated by TLC and the associated radioactivity was quantified. Neutral lipids were separated on boric acid/silica gel-TLC, with two solvent systems, first petroleum ether: diethyl ether: acetic acid (70:30:1), followed by second solvent system up to half of the plates, chloroform: acetone: acetic acid (60:40:1). Phospholipids were separated with a solvent system, chloroform: methanol: water (65:25:4).

MAG lipase (MAGL) = settings: cited from earlier work
TRPV1-R = settings: in vivo; cited from earlier work
INS832/13 cells = test: RNAi-knockdown of ABHD6, insulin secretion; format: cell-based; settings: siRNA transfection; for glucose-stimulated insulin secretion: 10 mM glucose
Procedure: INS 832/13 cells were plated at a density of 150 000 cells/well in a 12-well plate, in 1 ml complete RPMI medium, one day prior to RNAi transfection. On the next day, RNAi duplexes and lipofectamine-RNAimax™ were prepared separately. Then 24 pmol of each RNAi duplex was diluted in 100 μl Opti-MEM™ without serum and mixed gently. And at the same time, 2 μl of lipofectamine-RNAimax was diluted in 100 μl Opti-MEM without serum and mixed gently. Then the diluted RNAi duplex and RNAi-max reagents were mixed gently (200 μl volume) and incubated at room temperature for 20 min. This 200 μl mixture (which gives a final concentration of […] of RNAi), prepared separately for each well, was then added to the corresponding well with approximately 30% confluent INS cells. Following RNAi transfection, cells were incubated for 16 to 72 h. in a CO2 incubator at 37° C. Then the cells were starved by incubation in RPMI-1640 with 10% FBS and 1 mM glucose for 2 h. followed by washing one time with KRBH (containing 1 mM glucose and 0.5% BSA) and pre-incubation with the same KRBH for 45 min. Finally for following insulin secretion, cells were incubated in the KRBH buffer with 1 mM or 10 mM glucose for 2 h. The media and the cells were collected for insulin and protein assay as described above. The ABHD6-directed siRNAs and the control siRNAs were obtained from Ambion (Catalog #4390771; […]tt (ABHD6-6 sense or SEQ ID NO: 9), […]gt (ABHD6-6 anti-sense or SEQ ID NO: 10), […]tt (ABHD6-5 sense or SEQ ID NO: 11), […]at (ABHD6-5 anti-sense or SEQ ID NO: 12)). ABHD6-6 sense and antisense oligos are used in a similar fashion. Control siRNAs, which are non-targeting siRNAs with limited sequence similarity to known genes were obtained from Ambion (Catalog #AM4613 and AM4642) and were used to transfect the cells as described above. Additionally, non-treated cells and pBS (plasmid vector Bluescript) transfected cells were used as controls as well. Results of insulin secretion and ABHD6 expression in ABHD6-siRNA transfected cells were compared with different controls.

[6] = 20 μM AMG9810, with 20 μM WWL70
[7] = 20 μM WWL70 or 20 μM AMG9810 alone

CC(C)(C)c1ccc(/C=C/C(=O)Nc2ccc3c(c2)OCCO3)cc1 [AMG9810]
GSIS inhibition by AMG9810 (WWL70-augmented) [1, 6]: inhibition of GSIS | GSIS ([1]; 20 μM WWL70 or 20 μM AMG9810 alone, 2.8 and 11.1 mM glucose): without significant effect on GSIS per se | WWL70-enhanced GSIS (INS 832/13 cells [2]; 10 μM WWL70, AMG9810 at 10 μM, 1, 5, 10 mM glucose): completely antagonized the WWL70 stimulation | KCl-stimulated insulin secretion (INS 832/13 cells [2]; 35 mM KCl, 1 mM glucose, 10 μM WWL70 or 10 μM AMG9810): Neither WWL70 nor AMG9810 had any effect | GSIS, AMG9810 alone (INS 832/13 cells [2]; 1, 5, 10 mM glucose, AMG9810 concentration series): dose-dependently reduces GSIS | insulin secretion stimulated by leucine+glutamine (INS 832/13 cells [2]; Gln+Leu 5 mM each, 1 mM glucose, 10 μM WWL70 or 10 μM AMG9810): inhibited | GSIS [3]: inhibition of GSIS | WWL70-enhanced GSIS (rat intact islets): antagonized | GSIS inhibition by AMG9810 (WWL70-augmented) (human intact islets; [6]): inhibition of GSIS | GSIS (human intact islets; [7]): without significant effect on GSIS per se | WWL70-enhanced GSIS ([4]; 20 μM WWL70 + 20 μM AMG9810): antagonized | GSIS [4, 7]: without significant effect on GSIS per se

O=C(Oc1ccc([N+](=O)[O-])cc1)N1CCC(C(O)(c2ccc3c(c2)OCO3)c2ccc3c(c2)OCO3)CC1 [JZL184]
release of [U14C]-free fatty acids (FFA) (INS 832/13 cells [5]; 1 μM JZL184): no effect | glucose incorporation into 1-monoacylglycerol (1-MAG) (INS 832/13 cells [5]; 10 μM WWL70, 1 μM JZL184): elevated | glucose incorporation into 2-monoacylglycerol (2-MAG) (INS 832/13 cells [5]; 10 μM WWL70, 1 μM JZL184): elevated | glucose incorporation into diacylglycerol (DAG) (INS 832/13 cells [5]; 10 μM WWL70, 1 μM JZL184): no effect | glucose incorporation into triglycerides (TG) (INS 832/13 cells [5]; 10 μM WWL70, 1 μM JZL184): no effect | glucose-stimulated insulin secretion (GSIS) (INS 832/13 cells [2]; increasing glucose (5 and 10 mM), 10 μM WWL70, 50 μM orlistat, 1 μM JZL184): no effect | effect on MAG lipase (MAGL) (MAG lipase (MAGL)): specifically inhibits MAGL

C=C(C)[C@]12C[C@@H](C)[C@@]34O[C@](Cc5ccccc5)(O[C@@H]1[C@@H]3C=C(COC(=O)Cc1ccc(O)c(OC)c1)C[C@]1(O)C(=O)C(C)=C[C@@H]41)O2 [resiniferatoxin]
plasma insulin levels (TRPV1-R): elevates plasma insulin levels

ABHD6-siRNA5: annealed ABHD6-5 sense (SEQ ID NO: 11) and anti-sense (SEQ ID NO: 12) oligos, ABHD6-directed siRNA from Ambion (sense CAGUUUGUAGAAUGCCUUATT; antisense UAAGGCAUUCUACAAACUGAT; chemistry not given here)
basal insulin secretion (INS832/13 cells; 1 mM glucose): increased | glucose-stimulated insulin secretion (INS832/13 cells): significantly elevated

ABHD6-siRNA6: annealed ABHD6-6 sense (SEQ ID NO: 9) and anti-sense (SEQ ID NO: 10) oligos, ABHD6-directed siRNA from Ambion (sense CGGAAAUUGUUUUUGGAAATT; antisense UUUCCAAAAACAAUUUCCGGT; chemistry not given here)
glucose-stimulated insulin secretion (INS832/13 cells): significantly elevated
